Laboratory results from PubChem BioAssay (NCI).
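Values below derive from 48-hour exposures of cells grown in 96-well plates, with endpoints linearly interpolated between the two concentrations bracketing the appropriate inhibition level. Here, GI50 denotes the concentration required for 50% inhibition of growth. The concentration for full growth arrest is given as TGI.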

How the values were obtained:
Assay in all cases: inhibition of tumour cell growth, NCI panel, 48 h
SF-539 CNS = system: SF-539 CNS
SK-MEL-5 melanoma = system: SK-MEL-5 melanoma
UACC-257 melanoma = system: UACC-257 melanoma
HCT-116 colon = system: HCT-116 colon
RXF 393 renal = system: RXF 393 renal
LOX IMVI melanoma = system: LOX IMVI melanoma
HOP-62 NSCLC = system: HOP-62 NSCLC
CAKI-1 renal = system: CAKI-1 renal
MCF7 breast = system: MCF7 breast
MDA-MB-435 = system: MDA-MB-435

O=C1NC(Cc2ccccc2)C(=O)N2CCCC12 (centres undefined)
TGI (SF-539 CNS): > 100 µM | TGI (SK-MEL-5 melanoma): > 100 µM | TGI (UACC-257 melanoma): > 100 µM | TGI (HCT-116 colon): > 100 µM | TGI (RXF 393 renal): > 100 µM | TGI (LOX IMVI melanoma): > 100 µM | TGI (HOP-62 NSCLC): > 100 µM | TGI (CAKI-1 renal): > 100 µM

COc1ccc(N2C(=O)C(=O)C3(CCCCC3)C2=O)c(OC)c1OC
TGI (SF-539 CNS): > 100 µM | TGI (MCF7 breast): > 100 µM | TGI (SK-MEL-5 melanoma): > 100 µM | TGI (UACC-257 melanoma): > 100 µM | TGI (HCT-116 colon): > 100 µM | TGI (RXF 393 renal): > 100 µM | TGI (LOX IMVI melanoma): > 100 µM | TGI (MDA-MB-435): > 100 µM | TGI (CAKI-1 renal): > 100 µM

CCN(CCN(CC)C(=O)NC)C(=O)NC
TGI (MCF7 breast): > 100 µM | TGI (SK-MEL-5 melanoma): > 100 µM | TGI (UACC-257 melanoma): > 100 µM | TGI (HCT-116 colon): > 100 µM | TGI (RXF 393 renal): > 100 µM | TGI (LOX IMVI melanoma): > 100 µM | TGI (HOP-62 NSCLC): > 100 µM

COc1cc(CC2C(=O)OCC2[C@@H](OC(C)=O)c2ccc3c(c2)OCO3)c(Br)c(OC)c1OC (some centres undefined)
TGI (SF-539 CNS): > 100 µM | TGI (SK-MEL-5 melanoma): > 100 µM | TGI (UACC-257 melanoma): > 100 µM | TGI (HCT-116 colon): > 100 µM | TGI (RXF 393 renal): > 100 µM | TGI (LOX IMVI melanoma): > 100 µM | TGI (HOP-62 NSCLC): > 100 µM | TGI (CAKI-1 renal): > 100 µM

Cc1ccc(Cc2n[nH]c(=O)n2N2C(=O)c3ccccc3C2=O)cc1
TGI (SF-539 CNS): > 100 µM | TGI (MCF7 breast): > 100 µM | TGI (SK-MEL-5 melanoma): > 100 µM | TGI (UACC-257 melanoma): > 100 µM | TGI (HCT-116 colon): > 100 µM | TGI (LOX IMVI melanoma): > 100 µM | TGI (MDA-MB-435): > 100 µM | TGI (HOP-62 NSCLC): > 100 µM | TGI (CAKI-1 renal): > 100 µM

COc1cc(O)c2c(=O)c(OC)c(-c3ccc(OC)c(OC)c3)oc2c1.[Sn]
TGI (SF-539 CNS): > 100 µM | GI50 (MCF7 breast): > 100 µM | TGI (MCF7 breast): > 100 µM | GI50 (SK-MEL-5 melanoma): 32.9 µM | TGI (SK-MEL-5 melanoma): > 100 µM | TGI (RXF 393 renal): > 100 µM | GI50 (LOX IMVI melanoma): 29.8 µM | TGI (LOX IMVI melanoma): > 100 µM | GI50 (HOP-62 NSCLC): > 100 µM | TGI (HOP-62 NSCLC): > 100 µM | TGI (CAKI-1 renal): > 100 µM

COc1ccc(C=NCCCN=Cc2ccc(OC)cc2O)c(O)c1
TGI (MCF7 breast): > 100 µM | TGI (UACC-257 melanoma): > 100 µM | TGI (HCT-116 colon): > 100 µM | TGI (RXF 393 renal): > 100 µM | TGI (MDA-MB-435): > 100 µM | TGI (HOP-62 NSCLC): > 100 µM

O=C1C(=Cc2ccc([N+](=O)[O-])o2)C(=O)N(CCc2ccccc2)S(=O)(=O)N1CCc1ccccc1
TGI (SF-539 CNS): > 100 µM | TGI (SK-MEL-5 melanoma): 44.1 µM | TGI (UACC-257 melanoma): > 100 µM | TGI (HCT-116 colon): 29.9 µM | TGI (RXF 393 renal): 34.1 µM | TGI (LOX IMVI melanoma): 35 µM

CCc1n[nH]c(=O)n1N=C(c1ccccc1)c1ccccc1
TGI (MCF7 breast): > 100 µM | TGI (SK-MEL-5 melanoma): > 100 µM | TGI (UACC-257 melanoma): > 100 µM | TGI (HCT-116 colon): > 100 µM | TGI (RXF 393 renal): > 100 µM | TGI (LOX IMVI melanoma): > 100 µM | TGI (MDA-MB-435): > 100 µM | TGI (HOP-62 NSCLC): > 100 µM | TGI (CAKI-1 renal): > 100 µM

Cc1cc(=O)[nH]c(NNC(C#N)c2ccc(N(C)C)cc2)n1 (centres undefined)
TGI (SF-539 CNS): > 100 µM | TGI (SK-MEL-5 melanoma): > 100 µM | TGI (UACC-257 melanoma): > 100 µM | TGI (HCT-116 colon): > 100 µM | TGI (RXF 393 renal): > 100 µM | TGI (LOX IMVI melanoma): > 100 µM | TGI (HOP-62 NSCLC): > 100 µM | TGI (CAKI-1 renal): > 100 µM

NNC(=S)NN/C=C(\C=Nc1ccccc1)[N+](=O)[O-]
TGI (SF-539 CNS): > 100 µM | TGI (UACC-257 melanoma): > 100 µM | TGI (HCT-116 colon): > 100 µM | TGI (RXF 393 renal): > 100 µM | TGI (LOX IMVI melanoma): > 100 µM | TGI (HOP-62 NSCLC): > 100 µM | TGI (CAKI-1 renal): > 100 µM

O=C(c1cccnc1)N1N=C(c2ccc3c(c2)OCO3)CC1(O)c1cc(F)c(Cl)cc1Cl (centres undefined)
TGI (SF-539 CNS): 33.6 µM | TGI (SK-MEL-5 melanoma): 28.8 µM | TGI (UACC-257 melanoma): 51.2 µM | TGI (HCT-116 colon): 31.2 µM | TGI (RXF 393 renal): 26.1 µM | TGI (LOX IMVI melanoma): 30.5 µM | TGI (MDA-MB-435): > 100 µM | TGI (HOP-62 NSCLC): 48.7 µM | TGI (CAKI-1 renal): > 100 µM

Cc1cc2c(cc1-c1cc3c(cc1C)C(C(C)C)=C(O)C(=O)/C3=C\Nc1ccccn1)/C(=C/Nc1ccccn1)C(=O)C(O)=C2C(C)C
TGI (SF-539 CNS): > 100 µM | TGI (MCF7 breast): > 100 µM | TGI (SK-MEL-5 melanoma): > 100 µM | TGI (UACC-257 melanoma): > 100 µM | TGI (HCT-116 colon): > 100 µM | TGI (RXF 393 renal): > 100 µM | TGI (LOX IMVI melanoma): > 100 µM | TGI (MDA-MB-435): > 100 µM | TGI (CAKI-1 renal): > 100 µM

COCC1N=C(c2cc(OC)c(OC)c(OC)c2-c2cc3c(cc2[C@@H](C)O)OCO3)O[C@H]1c1ccccc1 (some centres undefined)
TGI (SF-539 CNS): > 100 µM | TGI (MCF7 breast): > 100 µM | TGI (SK-MEL-5 melanoma): > 100 µM | TGI (UACC-257 melanoma): > 100 µM | TGI (HCT-116 colon): > 100 µM | TGI (RXF 393 renal): > 91.6 µM | TGI (LOX IMVI melanoma): > 100 µM | TGI (HOP-62 NSCLC): > 100 µM | TGI (CAKI-1 renal): > 100 µM

O=C1NC2OC(CO)C(O)C(O)C2O1 (centres undefined)
TGI (SF-539 CNS): > 100 µM | TGI (SK-MEL-5 melanoma): > 100 µM | TGI (UACC-257 melanoma): > 100 µM | TGI (HCT-116 colon): > 100 µM | TGI (LOX IMVI melanoma): > 100 µM | TGI (HOP-62 NSCLC): > 100 µM | TGI (CAKI-1 renal): > 100 µM

C=CC(=C)CCC(Br)C(C)(C)Cl (centres undefined)
TGI (SF-539 CNS): > 100 µM | TGI (MCF7 breast): > 100 µM | TGI (SK-MEL-5 melanoma): > 100 µM | TGI (UACC-257 melanoma): > 100 µM | TGI (HCT-116 colon): > 100 µM | TGI (RXF 393 renal): > 100 µM | TGI (MDA-MB-435): > 100 µM | TGI (HOP-62 NSCLC): > 100 µM

CCC1OC2C(CC=C(C)C)=C3OC(C)(O)C(C)(CC)C(=O)C3=C3OC(=O)C=C1C32 (centres undefined)
TGI (SF-539 CNS): 23.1 µM | TGI (MCF7 breast): > 100 µM | TGI (SK-MEL-5 melanoma): 34.9 µM | TGI (UACC-257 melanoma): 96.2 µM | TGI (HCT-116 colon): 36.9 µM | TGI (LOX IMVI melanoma): 27.3 µM | TGI (MDA-MB-435): > 100 µM | TGI (CAKI-1 renal): > 100 µM

O=C1C(c2c(O)[nH]c3ccc(I)cc23)=Nc2ccccc21
TGI (SF-539 CNS): 23.3 µM | TGI (MCF7 breast): 15.7 µM | TGI (SK-MEL-5 melanoma): 10.8 µM | TGI (UACC-257 melanoma): > 75.1 µM | TGI (RXF 393 renal): 34.6 µM | TGI (LOX IMVI melanoma): 34.4 µM | TGI (MDA-MB-435): > 100 µM | TGI (HOP-62 NSCLC): 30 µM | TGI (CAKI-1 renal): > 96.5 µM

Cc1cc(N)c2cc(NC(=O)Nc3ccc4nc(C)cc(N)c4c3)ccc2n1
TGI (MCF7 breast): > 100 µM | TGI (SK-MEL-5 melanoma): > 100 µM | TGI (UACC-257 melanoma): > 100 µM | TGI (HCT-116 colon): > 100 µM | TGI (LOX IMVI melanoma): > 100 µM | TGI (MDA-MB-435): > 100 µM | TGI (HOP-62 NSCLC): > 100 µM | TGI (CAKI-1 renal): > 100 µM

COc1ccc(OC)c(-c2cc(=O)c3cc4c(cc3[nH]2)OCO4)c1
TGI (SF-539 CNS): 16.2 µM | TGI (SK-MEL-5 melanoma): 28 µM | TGI (UACC-257 melanoma): > 100 µM | TGI (HCT-116 colon): > 35.7 µM | TGI (RXF 393 renal): 16.5 µM | TGI (LOX IMVI melanoma): > 100 µM | TGI (HOP-62 NSCLC): 67.7 µM | TGI (CAKI-1 renal): > 65.7 µM

O=C1C(Cl)C(c2ccc([N+](=O)[O-])cc2)N1n1cnc2ccccc2c1=O (centres undefined)
TGI (SK-MEL-5 melanoma): > 100 µM | TGI (UACC-257 melanoma): > 100 µM | TGI (HCT-116 colon): > 100 µM | TGI (RXF 393 renal): 72.1 µM | TGI (LOX IMVI melanoma): > 100 µM | TGI (HOP-62 NSCLC): > 100 µM | TGI (CAKI-1 renal): > 100 µM

O=C1CCc2ccccc2O1
TGI (MCF7 breast): > 100 µM | TGI (UACC-257 melanoma): > 100 µM | TGI (HCT-116 colon): > 100 µM | TGI (RXF 393 renal): > 100 µM | TGI (LOX IMVI melanoma): > 100 µM | TGI (MDA-MB-435): > 100 µM | TGI (HOP-62 NSCLC): > 100 µM | TGI (CAKI-1 renal): > 100 µM

CC(C)(CO)NC(=O)c1cccs1
TGI (MCF7 breast): > 100 µM | TGI (SK-MEL-5 melanoma): > 100 µM | TGI (UACC-257 melanoma): > 100 µM | TGI (HCT-116 colon): > 100 µM | TGI (LOX IMVI melanoma): > 100 µM | TGI (MDA-MB-435): > 100 µM | TGI (HOP-62 NSCLC): > 100 µM | TGI (CAKI-1 renal): > 100 µM

COc1ccc(C2NC3=C(CCCC3)N2)cc1
TGI (SF-539 CNS): > 100 µM | TGI (SK-MEL-5 melanoma): 67.5 µM | TGI (UACC-257 melanoma): > 100 µM | TGI (HCT-116 colon): > 100 µM | TGI (LOX IMVI melanoma): > 100 µM | TGI (HOP-62 NSCLC): > 100 µM

CC1(C)OC2[C@@H](CO[C@@]3([C@H]4OC(C)(C)O[C@@H]4CO)OC(C)(C)O[C@@H]23)O1 (some centres undefined)
TGI (MCF7 breast): > 100 µM | TGI (SK-MEL-5 melanoma): > 100 µM | TGI (HCT-116 colon): > 100 µM | TGI (RXF 393 renal): > 100 µM | TGI (LOX IMVI melanoma): > 100 µM | TGI (MDA-MB-435): > 100 µM | TGI (HOP-62 NSCLC): > 100 µM
